SMILES strings stand for the structures. Where a name gives a salt, the structure may show the parent alone. Read-outs that look alike come from different tables or passages of the source.

For 19 molecules, IC50 results are on record in patent US20160193216A1 (Nimbus Iris, Inc., priority 2012, published 2016).

One experiment has as its system THP-1 cells. Briefly: LPS induced cytokine (TNFα and IL8) production assay in THP-1 cells. Format: cell-based. The conditions noted are these: Homo sapiens, 300 ng/mL LPS. As to the method:
Cytokine Production Assay
Provided compounds were also assayed in an LPS (Lipopolysacharide) or R848 (TLR-7 agonist) induced cytokine (TNFα and IL8) production assay in THP-1 cells, human peripheral blood mononuclear cells (hPBMC), and whole blood. The exemplary protocol for this assay in THP-1 cells was as follows below.
THP-1 cells from ATCC (TIB-202) were cultured in RPMI Medium 1640 (Invitrogen, Cat No. A10491-01), 10% fetal bovine serum (Invitrogen, Cat No. 10099141, Lot No. 8172882) containing 100 U/mL Penicillin, 100 μg/mL streptomycin (Invitrogen, Cat No. 15140-122), and 50 uM 2-Mercaptoethanol (Invitrogen, Cat No. 21985023). LPS-EK ultra pure (Invivogen, Cat No. tlrl-peklps) was used to induce IL8 and TNFα production, that was detected in the cell culture supernatant by IL8 HTRF kit (Cisbio, Cat No. 62IL8PEB) and TNFα HTRF kit (Cisbio, Cat No. 62TNFPEB), as per manufacturer instructions. Cells were cultured in 96 well assay plates at 100,000 cells per well, and compounds diluted in final 0.3% DMSO were pre-incubated with cells for 1 hour prior to stimulation with 300 ng/mL LPS. Cytokine production in cell supernatant was measured at 5 hours for TNFα and IL8 production, and for 16 hours for IL8 production and assessment of cell viability.
The compound numbers correspond to the compound numbers in Table 1. […] “NA” stands for “not assayed.”

The target in another experiment is T1, IRAK4 (Homo sapiens, UniProt Q9NWZ3).
T1 sequence (Q9NWZ3 1-460): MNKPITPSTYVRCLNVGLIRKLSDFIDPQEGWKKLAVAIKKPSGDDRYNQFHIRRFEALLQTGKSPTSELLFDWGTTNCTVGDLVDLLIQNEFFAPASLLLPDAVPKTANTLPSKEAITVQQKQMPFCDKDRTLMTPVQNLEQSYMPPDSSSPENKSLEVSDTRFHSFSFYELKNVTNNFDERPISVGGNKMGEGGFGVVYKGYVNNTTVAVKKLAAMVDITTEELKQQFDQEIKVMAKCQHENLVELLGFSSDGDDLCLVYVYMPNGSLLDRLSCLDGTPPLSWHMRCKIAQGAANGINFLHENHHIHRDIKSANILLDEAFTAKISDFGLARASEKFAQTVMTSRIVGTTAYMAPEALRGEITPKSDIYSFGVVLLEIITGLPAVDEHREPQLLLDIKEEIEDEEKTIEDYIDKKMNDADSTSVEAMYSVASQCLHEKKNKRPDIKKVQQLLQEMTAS
Briefly: IRAK-4 activity inhibition assay (Caliper). The note with it: 37 μM ATP, 3.5 nM IRAK4. Format: biochemical.

Regarding `CN(C)[C@H]1CC[C@H](Oc2ncnc3sc4c(c23)[C@@H](CC(F)(F)C(N)=O)CC4)CC1` [Compound I-144, 3-[(3R)-12-[[4-(dimethylamino)cyclohexyl]oxy]-7-thia-9,11-diazatricyclo[6.4.0.0[2,6]]dodeca-1(8),2(6),9,11-tetraen-3-yl]-2,2-difluoropropanamide], the IC50 with THP-1 cells (read-out: IL8 production IC50) is no more than 500 nM; in the experiment with THP-1 cells (read-out: TNFα production IC50), no more than 500 nM; at IRAK4, less than 5000 nM.

`CC[C@@H](O)C[C@H]1CCc2sc3ncnc(O[C@H]4CC[C@H](N5CCOCC5)CC4)c3c21` [Compound I-65, (R)-1-((R)-4-(((1r,4R)-4-morpholinocyclohexyl)oxy)-6,7-dihydro-5H-cyclopent[4,5]thieno[2,3-d]pyrimidin-5-yl)butan-2-ol]: the figures for the IC50 in the experiment with THP-1 cells (read-out: IL8 production IC50), in the experiment with THP-1 cells (read-out: TNFα production IC50) and at IRAK4 were 1000 to 5000 nM, 500 to 1000 nM and less than 5000 nM, respectively.

On to `CCN[C@H]1CC[C@H](Oc2ncnc3sc4c(c23)[C@@H](C[C@H](O)C(N)=O)CC4)CC1` [Compound I-136, (2S)-3-[(3R)-12-[[4-(ethylamino)cyclohexyl]oxy]-7-thia-9,11-diazatricyclo[6.4.0.0[2,6]]dodeca-1(8),2(6),9,11-tetraen-3-yl]-2-hydroxypropanamide], for which the figures for the IC50 in the experiment on THP-1 cells (read-out: IL8 production IC50), in the experiment on THP-1 cells (read-out: TNFα production IC50) and on IRAK4 were no more than 500 nM, 500 to 1000 nM and less than 5000 nM, respectively.

In the case of `NC(=O)C[C@H]1CCc2sc3ncnc(O[C@H]4CC[C@H](N5CCC(F)(F)CC5)CC4)c3c21` [Compound I-229, 2-[(3R)-12-[[4-(4,4-difluoropiperidin-1-yl)cyclohexyl]oxy]-7-thia-9,11-diazatricyclo[6.4.0.0[2,6]]dodeca-1(8),2(6),9, 11-tetraen-3-yl]acetamide], the values for the IC50 with THP-1 cells (read-out: IL8 production IC50), in the experiment with THP-1 cells (read-out: TNFα production IC50) and at IRAK4 were 500 to 1000 nM, no more than 500 nM and less than 5000 nM, respectively.

As for `NC(=O)[C@@H](O)C[C@H]1CCc2sc3ncnc(N[C@H]4CC[C@H](N5CCOCC5)CC4)c3c21` [Compound I-120, (S)-2-hydroxy-3-((R)-4-(((1r,4R)-4-morpholinocyclohexyl)amino)-6,7-dihydro-5H-cycyclopenta[4,5]thieno[2,3-d]pyrimidin-5-yl)propanamide], the IC50 in the experiment with THP-1 cells (read-out: IL8 production IC50) is no more than 500 nM; with THP-1 cells (read-out: TNFα production IC50) it was no more than 500 nM; on IRAK4 it was less than 5000 nM.

Turning to `NC(=O)[C@H](O)C[C@H]1CCc2sc3ncnc(O[C@H]4CC[C@H](N5CCCC5)CC4)c3c21` [Compound I-228, (R)-2-hydroxy-3-((R)-4-(((1r,4R)-4-(pyrrolidin-1-yl)cyclohexyl)oxy)-6,7-dihydro-5H-cyclopenta[4,5]thieno[2,3-d]pyrimidin-5-yl)propanamide], the IC50 in the experiment on THP-1 cells (read-out: IL8 production IC50) was no more than 500 nM; with THP-1 cells (read-out: TNFα production IC50), no more than 500 nM; on IRAK4, less than 5000 nM.

In the case of `N#CC(C[C@H]1CCc2sc3ncnc(O[C@H]4CC[C@H](N5CCOCC5)CC4)c3c21)C(N)=O` (stereo partly drawn) [Compound I-86, 2-cyano-3-((R)-4-(((1r,4R)-4-morpholinocyclohexyl)oxy)-6,7-dihydro-5H-cyclopenta[4,5]thieno[2,3-d]pyrimidin-5-yl)propanamide], the IC50 in the experiment on THP-1 cells (read-out: TNFα production IC50) was 1000 to 5000 nM; against IRAK4, less than 5000 nM.

Regarding `CN(C)[C@H]1CC[C@H](Oc2ncnc3sc4c(c23)[C@@H](CCC(N)=O)CC4)CC1` [Compound I-44, 3-[(3S)-12-[[4-(dimethylamino)cyclohexyl]oxy]-7-thia-9,11-diazatricyclo[6.4.0.0[2,6]]dodeca-1(8),2(6),9,11-tetraen-3-yl]propanamide], the values for the IC50 in the experiment on THP-1 cells (read-out: IL8 production IC50), with THP-1 cells (read-out: TNFα production IC50) and against IRAK4 were 1000 to 5000 nM, 500 to 1000 nM and less than 5000 nM, respectively.

Take `CN(C)[C@H]1CC[C@H](Oc2ncnc3sc4c(c23)[C@@H](C[C@@H](O)C(F)(F)F)CC4)CC1` [Compound I-68, (R)-3-((R)-4-(((1r,4R)-4-(dimethylamino)cyclohexyl)oxy)-6,7-dihydro-5H-cyclopenta[4,5]thieno[2,3-d]pyrimidin-5-yl)-1,1,1-trifluoropropan-2-ol]: the IC50 in the experiment on THP-1 cells (read-out: IL8 production IC50) is no more than 500 nM; in the experiment on THP-1 cells (read-out: TNFα production IC50), 500 to 1000 nM; against IRAK4, less than 5000 nM.

In the case of `CN(C)[C@H]1CC[C@H](Oc2ncnc3sc4c(c23)CC(CCO)CC4)CC1` (stereo partly shown) [Compound I-108, 2-[3-[[4-(dimethylamino)cyclohexyl]oxy]-8-thia-4,6-diazatricyclo[7.4.0.0[2,7]]trideca-1(9),2(7),3,5-tetraen-12-yl]ethan-1-ol formate], the IC50 was 1000 to 5000 nM in the experiment with THP-1 cells (read-out: TNFα production IC50) and less than 5000 nM at IRAK4.

On to `CC[C@@H](O)C[C@H]1CCc2sc3ncnc(O[C@H]4CC[C@H](N(C)C)CC4)c3c21` [Compound I-106], for which the IC50 in the experiment on THP-1 cells (read-out: IL8 production IC50) is 500 to 1000 nM; with THP-1 cells (read-out: TNFα production IC50), 500 to 1000 nM; against IRAK4, less than 5000 nM.

As for `OC[C@@H]1CCc2sc3ncnc(O[C@H]4CC[C@H](N5CCOCC5)CC4)c3c2C1` [Compound I-215, [(12R)-3-[[4-(morpholin-4-yl)cyclohexyl]oxy]-8-thia-4,6-diazatricyclo[7.4.0.0[2,7]]trideca-1(9),2(7),3,5-tetraen-12-yl]methanol], the IC50 with THP-1 cells (read-out: IL8 production IC50) is 1000 to 5000 nM; in the experiment on THP-1 cells (read-out: TNFα production IC50), 500 to 1000 nM; at IRAK4, less than 5000 nM.

For `CN(C)[C@H]1CC[C@H](Nc2ncnc3sc4c(c23)CC(C)(C)OC4)CC1` [Compound I-194, 4-N-[12, 12-dimethyl-11-oxa-8-thia-4,6-diazatricyclo[7.4.0.0[2,7]]trideca-1(9),2(7),3,5-tetraen-3-yl]-1-N, 1-N-dimethylcyclohexane-1,4-diamine], the IC50 was 1000 to 5000 nM with THP-1 cells (read-out: IL8 production IC50), no less than 5000 nM in the experiment with THP-1 cells (read-out: TNFα production IC50) and less than 5000 nM at IRAK4.

With `NC(=O)[C@@H](O)C[C@H]1CCc2sc3ncnc(O[C@H]4CC[C@H](N5CCCCC5)CC4)c3c21` [Compound I-217, (S)-2-hydroxy-3-((R)-4-(((1r,4R)-4-(piperidin-1-yl)cyclohexyl)oxy)-6,7-dihydro-5H-cyclopenta[4,5]thieno[2,3-d]pyrimidin-5-yl)propanamide], the IC50 with THP-1 cells (read-out: IL8 production IC50) is no more than 500 nM; in the experiment with THP-1 cells (read-out: TNFα production IC50) it was no more than 500 nM; at IRAK4 it was less than 5000 nM.

`CN(C)[C@H]1CC[C@H](Oc2ncnc3sc4c(c23)[C@@H](C[C@H](O)C(=O)NCO)CC4)CC1` [Compound I-100, (S)-3-((R)-4-(((1r,4R)-4-(dimethylamino)cyclohexyl)oxy)-6,7-dihydro-5H-cyclopenta[4,5]thieno[2,3-d]pyrimidin-5-yl)-2-hydroxy-N-(hydroxymethyl)propanamide]: the IC50 was 1000 to 5000 nM in the experiment with THP-1 cells (read-out: IL8 production IC50), 1000 to 5000 nM in the experiment with THP-1 cells (read-out: TNFα production IC50) and less than 5000 nM at IRAK4.

`CN(C)[C@H]1CC[C@H](Oc2ncnc3sc4c(c23)[C@@H](CCO)CC4)CC1` [Compound I-34, 2-[(3R)-12-[[4-(dimethylamino)cyclohexyl]oxy]-7-thia-9,11-diazatricyclo[6.4.0.0[2,6]]dodeca-1(12),2(6),8,10-tetraen-3-yl]ethan-1-ol]: the IC50 with THP-1 cells (read-out: IL8 production IC50) was 1000 to 5000 nM; with THP-1 cells (read-out: TNFα production IC50), 1000 to 5000 nM; on IRAK4, less than 5000 nM.

As for `CN(C)[C@H]1CC[C@H](Oc2ncnc3sc4c(c23)[C@@H](CCC#N)CC4)CC1` [Compound I-42, 3-[(3S)-12-[[4-(dimethylamino)cyclohexyl]oxy]-7-thia-9,11-diazatricyclo 1[6.4.0.0[2,6]]dodeca-1(8),2(6),9,11-tetraen-3-yl]propanenitrile], the IC50 in the experiment on THP-1 cells (read-out: IL8 production IC50) was no more than 500 nM; in the experiment with THP-1 cells (read-out: TNFα production IC50), no more than 500 nM; against IRAK4, less than 5000 nM.

With `CO[C@H](C[C@H]1CCc2sc3ncnc(O[C@H]4CC[C@H](N(C)C)CC4)c3c21)C(N)=O` [Compound I-77, (2R)-3-[(3R)-12-[[4-(dimethylamino)cyclohexyl]oxy]-7-thia-9,11-diazatricyclo[6.4.0.0[2,6]]dodeca-1(8),2(6),9,11-tetraen-3-yl]-2-methoxypropanamide], the IC50 is 500 to 1000 nM in the experiment on THP-1 cells (read-out: IL8 production IC50), 1000 to 5000 nM with THP-1 cells (read-out: TNFα production IC50) and less than 5000 nM against IRAK4.

Regarding `CC[C@@H](O)C[C@H]1CCc2sc3ncnc(O[C@H]4CC[C@H](N(C)CC(=O)N5CCCC5)CC4)c3c21` [Compound I-71, 2-[(4-[[(3R)-3-[(2R)-2-hydroxybutyl]-7-thia-9,11-diazatricyclo[6.4.0.0[2,6]]dodeca-1(8),2(6),9,11-tetraen-12-yl]oxy]cyclohexyl)(methyl)amino]-1-(pyrrolidin-1-yl)ethan-1-one], the IC50 in the experiment on THP-1 cells (read-out: IL8 production IC50) is 1000 to 5000 nM; with THP-1 cells (read-out: TNFα production IC50), 500 to 1000 nM; against IRAK4 it was less than 5000 nM.

One may read the IC50 as the midpoint of a concentration-inhibition curve.
